Structures are written as SMILES.

Common to all, as to assay type: in vivo
For test [1], the system named is reserpinized rat or mouse. Kind of test: Reserpinized rat or mouse, akinesia in activity meters. The note with it: 24 h after reserpine. On the procedure: A typical animal model is the reserpinized rat or mouse (e.g. M. S. Starr and B. S. Starr, J. Neural Transm.—Park. Dis. Dement. Sect., 1994; 7: 133-142; M. Gossel et al., J. Neural Transm.—Park. Dis. Dement. Sect., 1995; 10: 27-39; N. R. Hughes et al., Mov. Disord., 1998; 13: 228-233). Reserpine is a potent depleter of monoamines and produces nearly complete akinesia in both species. Prominent 24 h after application, the distance travelled and the time active is nearly zero as measured in conventional activity meters.

For test [2], the system named is Parkinsonian cynomolgus monkey. Nature of the test: MPTP Parkinsonian cynomolgus monkey chronically treated with l-dopa (Abnormal Involuntary Movement Scale, rating for psychotic states). Conditions: MPTP monkeys, long-term l-dopa. On the procedure: Treatment of adverse effects of conventional anti-Parkinsonian drugs as defined above are determined in a modification of the animal model of the Parkinsonian cynomolgus monkey according to P. J. Blanchet et al., Exp. Neurology 1998; 153: 214-222. Monkeys render parkinsonian by repeated injections of 1-methyl-4-phenyl-1,2,3,6-tetrahydropyridine (MPTP). The Parkinsonian monkeys are chronically treated with the standard l-dopa therapy according to P. J. Blanchet et al., Mov. Disord., 1998; 13: 798-802. Longterm treatment with l-dopa induces extrapyramidal motor side effects and psychotic states which are both qualitatively and quantitatively, assessed by the Abnormal Involuntary Movement Scale (P. J. Blanchet et al., Mov. Disord. 1998; 13: 798-802) for different body parts (face, neck, trunk, each limb) and by rating for psychotic states by observing the monkey's attention, reactivity and mobility. (−)-(R)-2-{4-[[3,4-dihydro-2H-benzopyran-2-yl)-methyl]amino]butyl}-1,2-benzoisothiazol-3-(2H)-on-1,1-dioxide reduced overall choreiform dyskinesias and dystonic dyskinesias as well as psychotic states.

In test [3] the test system is rat with nigrostriatal degeneration. Nature of the test: Striatonigral degeneration in the rat (6-hydroxydopamine plus quinolinic acid), turning behavior. The note with it: automated recorder. The source says: Another more recent animal model is the striatonigral degeneration approach in the rat according to G. K. Wenning et al., J. Neural Transm. Suppl., 1999; 55: 103-113. Rats receive an unilateral injection of 6-hydroxydopamine into the left medial forebrain bundle followed by an injection of quinolinic acid into the ipsilateral striatum inducing nigrostriatal degeneration. The degeneration results in turning behavior to a challenge with dopaminomimetics such as apomorphine or amphetamine. Turning behavior is measured by an automated recorder.

Where [4] appears, read: Abnormal Involuntary Movement Scale.

As to `O=C1c2ccccc2S(=O)(=O)N1CCCCNC[C@H]1CCc2ccccc2O1` [(−)-(R)-2-{4-[[3,4-dihydro-2H-benzopyran-2-yl)-methyl]amino]butyl}-1,2-benzoisothiazol-3-(2H)-on-1,1-dioxide], the akinesia entry in test [1] is listed as “dose-dependently reduced akinesia”. In addition, in test [1] (activity meters), the “distance travelled and time active” value is “restored distance travelled and time active to about the level of normal animals”. In addition, in test [2] (setting [4]), the dystonic dyskinesias entry is reported as “reduced” and the overall choreiform dyskinesias entry was “reduced”. The psychotic states entry in test [2] (rating of attention, reactivity and mobility) was “reduced”. Also, in test [3], the “turning behavior induced by amphetamine” value was “dose-dependently antagonized” and the “turning behavior induced by apomorphine” value was “dose-dependently antagonized”.

The record behind these values is patent US20040235920A1, “Novel use of substituted aminomethyl chromans for the treatment of movement disorders and of adverse effects induced by drugs administered to treat extrapyramidal movement disorders” (priority 2001, published 2004).
